Test results taken from patent US9834521B2, “Choline kinase inhibitors” (ARIAD Pharmaceuticals, Inc., priority 2013, dated 2017).
Where two headings read alike, the source gives them in different places.

Key:
ChoKα protein = target: T1, ChoKα protein (Homo sapiens, UniProt P35790); test: Binding affinity by surface plasmon resonance (SensiQ Pioneer, FastStep)
T1 construct: made in house
Procedure: KD may be measured using surface plasmon resonance (BIAcore®) technology, see, e.g., Panayotou et al, Mol. Cell. […] ChoKα protein was immobilized by standard amine coupling methods on a COOH5 sensor chip installed in a SensiQ Pioneer system. Sensograms were measured using the FastStep™ screen method with an upper concentration of 500 nM. Kinetics and affinity were obtained from fits using a 1:1 binding model.

cancer cell lines = test: Cellular Growth Inhibition Assay (CyQuant Cell Proliferation Assay Kit); format: cell-based
Procedure: Cellular Growth Inhibition AssayVehicle or compound treated cells were assessed for cell growth after 72 hours of treatment using the CyQuant® Cell Proliferation Assay Kit (Life Technologies, Grand Island, N.Y.). […] Data are shown as mean (±SD) from ≧2 separate experiments.

[1] = target: T2, truncated form of human Choline kinase α1 that includes residues 75-457 (Homo sapiens, UniProt P35790); test: Kinase Assay, coupled (ATP regeneration) LDH/PK assay, NADH absorbance; format: biochemical
T2 construct: made in house
Procedure: Absorbance of NADH (340 nm) was measured over 30 min using a SpectraMax M5 (Molecular Devices). Initial reaction velocity (ΔA340/Δt) was calculated and plotted as a function of inhibitor concentration in a 2-fold dilution series. IC50 values were obtained by fitting the relative velocities to a dose-response model.

[2] = SPR, 1:1 binding model, upper concentration 500 nM, read-out: Kd
[3] = 72 hours of treatment, cell line not named, read-out: GI50
[4] = Examples not designated with an asterisk, footnote prints version 1 of the Kinase Assay, read-out: IC50
[5] = Examples designated with an asterisk (*): version 1 of the Kinase Assay, 200 nM enzyme, read-out: IC50

T2 sequence (P35790 75-457): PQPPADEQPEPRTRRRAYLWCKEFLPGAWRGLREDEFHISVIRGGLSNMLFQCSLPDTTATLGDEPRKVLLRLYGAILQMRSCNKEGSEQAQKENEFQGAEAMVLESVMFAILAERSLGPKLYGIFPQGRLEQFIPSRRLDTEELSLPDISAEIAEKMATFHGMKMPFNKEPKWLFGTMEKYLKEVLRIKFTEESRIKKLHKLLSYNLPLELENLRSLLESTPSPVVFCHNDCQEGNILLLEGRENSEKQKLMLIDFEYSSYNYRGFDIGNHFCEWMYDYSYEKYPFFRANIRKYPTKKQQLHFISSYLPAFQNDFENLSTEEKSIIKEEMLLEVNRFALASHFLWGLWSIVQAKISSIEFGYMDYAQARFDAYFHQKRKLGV
T1 sequence (P35790 75-457): as above

| Structure (SMILES) | Kd (ChoKα protein; [2]) [nM] | IC50 [1, 4] [nM] | also measured |
| --- | --- | --- | --- |
| CNS(=O)(=O)c1ccc(-c2ccc(CN3CCCN(C)CC3)cc2C#N)cc1 [Example 86, 2′-cyano-N-methyl-4′-((4-methyl-1,4-diazepan-1-yl)methyl)-[1,1′-biphenyl]-4-sulfonamide] | < 50 | < 100 | GI50 (cancer cell lines; [3]): < 5000 nM |
| CN1CCCN(Cc2ccc(-c3ccc(CN4CCCN(C)CC4)cc3C#N)c(C#N)c2)CC1 [Example 56, 4,4′-bis((4-methyl-1,4-diazepan-1-yl)methyl)-[1,1′-biphenyl]-2,2′-dicarbonitrile] | < 100 | < 100 | GI50 (cancer cell lines; [3]): < 20000 nM |
| Cc1cc(C(=O)N2CCCN(C)CC2)ccc1-c1ccc(CN2CCCN(C)CC2)cc1 [Example 50, (4-methyl-1,4-diazepan-1-yl)(2-methyl-4′-((4-methyl-1,4-diazepan-1-yl)methyl)-[1,1′-biphenyl]-4-yl)methanone] | < 60000 | < 200 | GI50 (cancer cell lines; [3]): < 5000 nM |
| CN1CCCN(Cc2ccc(-c3ccc4cn[nH]c4c3)c(C#N)c2)CC1 [Example 89, 2-(1H-indazol-6-yl)-5-((4-methyl-1,4-diazepan-1-yl)methyl)benzonitrile] | < 50 | < 100 | GI50 (cancer cell lines; [3]): > 20000 nM |
| CN1CCCN(Cc2ccc(-c3ccc(CN4CCCN(C)CC4)cc3F)cc2)CC1 [Example 44, 4,4′-((2-fluoro-[1,1′-biphenyl]-4,4′-diyl)bis(methylene))bis(1-methyl-1,4-diazepane)] | – | – | Kd (ChoKα protein): < 200 nM; GI50 (cancer cell lines; 72 h): < 5000 nM; IC50 [1]: < 200 nM |
| CC(=O)NNC(=O)CCc1ccc(-c2ccc(CN3CCCN(C)CC3)cc2C#N)cc1 [Example 83, N′-acetyl-3-(2′-cyano-4′-((4-methyl-1,4-diazepan-1-yl)methyl)-[1,1′-biphenyl]-4-yl)propanehydrazide] | < 50 | < 100 | GI50 (cancer cell lines; [3]): > 20000 nM |
| CN1CCCN(Cc2ccc(-c3ccc(S(N)(=O)=O)cc3)c(C#N)c2)CC1 [Example 87, 2′-cyano-4′-((4-methyl-1,4-diazepan-1-yl)methyl)-[1,1′-biphenyl]-4-sulfonamide] | < 100 | < 100 | GI50 (cancer cell lines; [3]): > 20000 nM |
| CN1CCCN(Cc2ccc(-c3ccc(CN4CCCN(C)CC4)c(F)c3)cc2)CC1 [Example 42, 4,4′-((3-fluoro-[1,1′-biphenyl]-4,4′-diyl)bis(methylene))bis(1-methyl-1,4-diazepane)] | < 200 | < 200 | GI50 (cancer cell lines; [3]): < 5000 nM |
| CN1CCCN(Cc2ccc(-c3ccc(C4(NS(C)(=O)=O)CC4)cc3)c(C#N)c2)CC1 [Example 82, N-(1-(2′-cyano-4′-((4-methyl-1,4-diazepan-1-yl)methyl)-[1,1′-biphenyl]-4-yl)cyclopropyl)methanesulfonamide] | < 50 | < 100 | GI50 (cancer cell lines; [3]): < 20000 nM |
| CN1CCCN(Cc2ccc(-c3ccc(C(=O)N4CCCN(C)CC4)cc3-c3ccc(O)cc3)c(C#N)c2)CC1 [Example 69, 4″-hydroxy-4-((4-methyl-1,4-diazepan-1-yl)methyl)-4′-(4-methyl-1,4-diazepane-1-carbonyl)-[1,1′:2′,1″-terphenyl]-2-carbonitrile] | < 50 | < 100 | – |
| CN1CCCN(Cc2ccc(-c3ccc(CN4CCOCC4)cc3)c(C#N)c2)CC1 [Example 9, 4-((4-methyl-1,4-diazepan-1-yl)methyl)-4′-(morpholinomethyl)-[1,1′-biphenyl]-2-carbonitrile] | < 100 | < 200 | – |
| CN1CCCN(Cc2ccc(-c3ccc(C(=O)N4CCCN(C)CC4)cc3N)c(C#N)c2)CC1 [Example 64, 2′-amino-4-((4-methyl-1,4-diazepan-1-yl)methyl)-4′-(4-methyl-1,4-diazepane-1-carbonyl)-[1,1-biphenyl]-2-carbonitrile] | < 60000 | < 200 | – |
| CN1CCCN(Cc2ccc(-c3ccc(CN4CCC(CO)C4)cc3)c(C#N)c2)CC1 (centres unmarked) [Example 5, 4′-((3-(hydroxymethyl)pyrrolidin-1-yl)methyl)-4-((4-methyl-1,4-diazepan-1-yl)methyl)-[1,1′-biphenyl]-2-carbonitrile] | < 200 | < 200 | – |
| CNS(=O)(=O)c1ccc(-c2ccc(CN3CCCN(C)CC3)cc2C#N)c(C)c1 [Example 97, 2′-cyano-N,2-dimethyl-4′-((4-methyl-1,4-diazepan-1-yl)methyl)-[1,1′-biphenyl]-4-sulfonamide] | < 200 | < 200 | – |
| CN1CCCN(Cc2ccc(-n3cccn3)cc2F)CC1 [Example 142, 1-(2-fluoro-4-(1H-pyrazol-1-yl)benzyl)-4-methyl-1,4-diazepane] | < 60000 | – | IC50 [1, 5]: < 200 nM |
| CN1CCCN(Cc2ccc(-c3ccc(C(=O)NN)cc3)c(C#N)c2)CC1 [Example 91, 2′-cyano-4′-((4-methyl-1,4-diazepan-1-yl)methyl)-[1,1′-biphenyl]-4-carbohydrazide] | < 200 | < 200 | – |

| Structure (SMILES) | Kd (ChoKα protein; [2]) [nM] | IC50 [1, 4] [nM] | also measured |
| --- | --- | --- | --- |
| CN1CCCN(Cc2ccc(-c3ccc(S(=O)(=O)N4CCN(C)CC4)cc3)c(C#N)c2)CC1 [Example 84, 4-((4-methyl-1,4-diazepan-1-yl)methyl)-4′-((4-methylpiperazin-1-yl)sulfonyl)-[1,1′-biphenyl]-2-carbonitrile] | < 100 | < 100 | – |
| CN1CCCN(Cc2ccc(-n3cncn3)cc2)CC1 [Example 139, 1-(4-(1H-1,2,4-triazol-1-yl)benzyl)-4-methyl-1,4-diazepane] | < 60000 | – | IC50 [1, 5]: < 500 nM |
| CCOc1ccc(-c2cc(C(=O)N3CCCN(C)CC3)ccc2-c2ccc(CN3CCCN(C)CC3)cc2C#N)cc1 [Example 79, 4″-ethoxy-4-((4-methyl-1,4-diazepan-1-yl)methyl)-4′-(4-methyl-1,4-diazepane-1-carbonyl)-[1,1′1:2′,1″-terphenyl]-2-carbonitrile] | < 50 | < 100 | – |
| CN1CCCN(Cc2ccc(-c3ccc(CN4CCC(O)C4)cc3)c(C#N)c2)CC1 (centres unmarked) [Example 2, 4′-((3-hydroxypyrrolidin-1-yl)methyl)-4-((4-methyl-1,4-diazepan-1-yl)methyl)-[1,1′-biphenyl]-2-carbonitrile] | < 50 | < 100 | – |
| CN1CCCN(Cc2ccc(-c3ccc(C(=O)N4CCC(CO)C4)cc3)c(C#N)c2)CC1 (centres unmarked) [Example 22, 4′-(3-(hydroxymethyl)pyrrolidine-1-carbonyl)-4-((4-methyl-1,4-diazepan-1-yl)methyl)-[1,1′-biphenyl]-2-carbonitrile] | < 200 | < 200 | – |
| CN1CCCN(Cc2ccc(CN3CCC(N4CCCC4)CC3)cc2)CC1 [Example 148, 1-methyl-4-(4-((4-(pyrrolidin-1-yl)piperidin-1-yl)methyl)benzyl)-1,4-diazepane] | < 60000 | – | IC50 [1, 5]: < 200 nM |
| COC(=O)c1ccc(-c2ccc(CN3CCCN(C)CC3)cc2)cc1 [Example 158, methyl 4′-((4-methyl-1,4-diazepan-1-yl)methyl)-[1,1′-biphenyl]-4-carboxylate] | – | – | Kd (ChoKα protein): < 60000 nM; IC50 [1]: < 200 nM |
| CN1CCCN(Cc2ccc(-c3ccc(C(=O)N4CCCN(C)CC4)cc3-c3cc(F)cc(F)c3)c(C#N)c2)CC1 [Example 78, 3″,5″-difluoro-4-((4-methyl-1,4-diazepan-1-yl)methyl)-4′-(4-methyl-1,4-diazepane-1-carbonyl)-[1,1′:2′,1″-terphenyl]-2-carbonitrile] | < 50 | < 100 | – |
| CN1CCCN(Cc2ccc(-c3ccc(CNS(C)(=O)=O)cc3)c(C#N)c2)CC1 [Example 48, N-((2′-cyano-4′-((4-methyl-1,4-diazepan-1-yl)methyl)-[1,1′-biphenyl]-4-yl)methyl)methanesulfonamide] | < 50 | < 100 | – |
| CNC(=O)c1ccc(-c2ccc(CN3CCCN(C)CC3)cc2C#N)cc1 [Example 29, 2′-cyano-N-methyl-4′-((4-methyl-1,4-diazepan-yl)methyl)-[1,1′-biphenyl]-4-carboxamide] | < 200 | < 200 | – |
| CN1CCCN(Cc2ccc(-c3ccc(CN4CCNC(=O)C4)cc3)c(C#N)c2)CC1 [Example 7, 4-((4-methyl-1,4-diazepan-1-yl)methyl)-4′-((3-oxopiperazin-1-yl)methyl)-[1,1′-biphenyl]-2-carbonitrile] | < 60000 | < 200 | – |
| CCN(CC)C1CCN(Cc2ccc(-c3ccc(CN4CCCN(C)CC4)cc3C#N)cc2)CC1 [Example 15, 4′-((4-(diethylamino)piperidin-1-yl)methyl)-4-((4-methyl-1,4-diazepan-1-yl)methyl)-[1,1′-biphenyl]-2-carbonitrile] | < 50 | < 100 | – |
| COc1ccc(-c2ccc(CN3CCCN(C)CC3)cc2)cc1 [Example 128, 1-((4′-methoxy-[1,1′-biphenyl]-4-yl)methyl)-4-methyl-1,4-diazepane] | – | – | Kd (ChoKα protein): < 60000 nM; IC50 [1]: < 200 nM |
| CN1CCCN(Cc2ccc(CNc3cccc(C(N)=O)c3)cc2)CC1 [Example 152, 3-((4-((4-methyl-1,4-diazepan-1-yl)methyl)benzyl)amino)benzamide] | < 60000 | – | IC50 [1, 5]: < 200 nM |
| CN1CCCN(Cc2ccc(-c3ccc(NC(N)=O)cc3)c(C#N)c2)CC1 [Example 90, 1-(2′-cyano-4′-((4-methyl-1,4-diazepan-1-yl)methyl)-[1,1′-biphenyl]-4-yl)urea] | < 200 | < 200 | – |
